{"source": "paper PMC6001834", "about": "(Drug Design, Development and Therapy, 2018)", "tested_on": "AMI rats", "assay": "In vivo effects of LNCs on infarct size", "design": "species or system Sprague-Dawley rats", "conditions": "intravenous injection, n=8, AMI group 58%", "data": [{"compound": "Nc1ncnc2c1ncn2[C@@H]1O[C@H](CO)[C@@H](O)[C@H]1O", "note": "[free Ade, Adenosine]", "values": [{"measurement": "infarct size (percentage of whole size of the left ventricle)", "value": 47, "unit": "%"}]}]}
